Results as given in US10280150B2 (FORMA TM2, Inc., priority 2014, dated 2019).

Molecular target: IDH1-R132H recombinant protein (Homo sapiens (Human), UniProt O75874, R132H)
Test: IDH1-R132H enzymatic assay (inhibition of NADPH consumption, diaphorase/resazurin readout)
Type: biochemical
Conditions: read-out: Enzyme IDH1 R132H IC50 (Range)
Experimental: Assays were performed in a 384-well black plate. An aliquot of 250 nL of compound was incubated with 10 μL of 30 nM IDH1-R132H or 10 nM IDH1-R132C recombinant protein in assay buffer (50 mM Tris pH=7.5, 150 mM NaCl, 5 mM MgCl2, 0.1% (w/v) Bovine Serum Albumin, and 0.01% Triton X-100) in each well at 25° C. for 15 minutes. After the plate was centrifuged briefly, an aliquot of 10 μL of 2 mM α-ketoglutarate and 20 μM NADPH solution prepared in assay buffer was then added to each well and the reaction was maintained at 25° C. for 45 minutes. An aliquot of 10 μL of diaphorase solution (0.15 U/mL diaphorase and 30 µM Resazurin in assay buffer) was added to each well. The plate was maintained at 25° C. for 15 minutes and then read on a plate reader with excitation and emission wavelengths at 535 nm and 590 nm, respectively. The IC50 of a given compound was calculated by fitting the dose response curve of inhibition of NADPH consumption at a given concentration with the four parameter logistic equation.

Chain of IDH1-R132H recombinant protein (O75874 whole entry R132H): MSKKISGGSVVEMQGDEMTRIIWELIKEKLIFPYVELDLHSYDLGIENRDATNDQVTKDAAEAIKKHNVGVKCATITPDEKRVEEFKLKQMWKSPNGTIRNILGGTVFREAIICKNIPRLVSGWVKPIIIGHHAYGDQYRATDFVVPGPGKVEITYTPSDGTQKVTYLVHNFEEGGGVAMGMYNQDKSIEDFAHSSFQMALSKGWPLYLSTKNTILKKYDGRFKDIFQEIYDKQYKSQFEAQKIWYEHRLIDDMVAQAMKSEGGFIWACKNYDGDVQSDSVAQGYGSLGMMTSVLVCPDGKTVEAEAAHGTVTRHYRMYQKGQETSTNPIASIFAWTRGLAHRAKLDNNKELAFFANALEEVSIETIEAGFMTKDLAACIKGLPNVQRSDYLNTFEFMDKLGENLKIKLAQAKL

SMILES | IC50
C[C@H](Nc1nccc(NC2CC2)n1)c1cc2cc(Cl)ccc2[nH]c1=O [Compound I-9, (S)-6-Chloro-3-(1-((4-(cyclopropylamino)pyrimidin-2-yl)amino)ethyl)quinolin-2(1H)-one] | 1000 to 10000 nM
C[C@H](Nc1nccc(NS(C)(=O)=O)n1)c1cc2cc(Cl)ccc2[nH]c1=O [Compound I-17] | > 10000 nM
CC(C)CS(=O)(=O)Nc1ccnc(N[C@@H](C)c2cc3cc(Cl)ccc3[nH]c2=O)n1 [Compound I-18] | 1000 to 10000 nM
C[C@H](Nc1nccc(N(CC(C)(C)O)S(C)(=O)=O)n1)c1cc2cc(Cl)ccc2[nH]c1=O [Compound I-19] | 1000 to 10000 nM
CC(=O)N(c1ccnc(N[C@@H](C)c2cc3cc(Cl)ccc3[nH]c2=O)n1)C1CC1 [Compound I-28, (S)—N-(2-((1-(6-chloro-2-oxo-1,2-dihydroquinolin-3-yl)ethyl)amino)pyrimidin-4-yl)-N-cyclopropylacetamide] | 100 to 1000 nM
CC(=O)N(c1ccnc(N[C@@H](C)c2cc3cc(Cl)ccc3[nH]c2=O)n1)C(C)(C)C [Compound I-30] | 1000 to 10000 nM
CC(C)[C@H]1COC(=O)N1c1ccnc(N[C@H](C)c2cc3cc(Cl)ccc3[nH]c2=O)n1 [Compound I-43, (S)-3-(2-(((R)-1-(6-Chloro-2-oxo-1,2-dihydroquinolin-3-yl)ethyl)amino)pyrimidin-4-yl)-4-isopropyloxazolidin-2-one] | > 10000 nM
Cc1nccn1-c1ccnc(N[C@@H](C)c2cc3cc(Cl)ccc3[nH]c2=O)n1 [Compound I-56] | 1000 to 10000 nM
C[C@H](Nc1nccc(-c2cncnc2)n1)c1cc2cc(Cl)ccc2[nH]c1=O [Compound I-62, (S)-3-(1-(4,5′-bipyrimidin-2-ylamino)ethyl)-6-chloroquinolin-2(1H)-one] | 1000 to 10000 nM
Cc1noc(C)c1-c1ccnc(N[C@@H](C)c2cc3cc(Cl)ccc3[nH]c2=O)n1 [Compound I-69] | 1000 to 10000 nM
C[C@H](Nc1nccc(-c2cnoc2)n1)c1cc2cc(Cl)ccc2[nH]c1=O [Compound I-70] | 1000 to 10000 nM
CC(=O)c1ccccc1-c1ccnc(N[C@@H](C)c2cc3cc(Cl)ccc3[nH]c2=O)n1 [Compound I-72] | 1000 to 10000 nM
CC(=O)Nc1ccccc1-c1ccnc(N[C@@H](C)c2cc3cc(Cl)ccc3[nH]c2=O)n1 [Compound I-73] | 1000 to 10000 nM
Cc1cc(-c2ccnc(N[C@@H](C)c3cc4cc(Cl)ccc4[nH]c3=O)n2)n(C)n1 [Compound I-76] | 1000 to 10000 nM
Cc1nn(C)cc1-c1ccnc(N[C@@H](C)c2cc3cc(Cl)ccc3[nH]c2=O)n1 [Compound I-77] | 1000 to 10000 nM
Cc1nc(C)c(-c2ccnc(N[C@@H](C)c3cc4cc(Cl)ccc4[nH]c3=O)n2)s1 [Compound I-78] | 1000 to 10000 nM
Cc1n[nH]c(C)c1-c1ccnc(N[C@@H](C)c2cc3cc(Cl)ccc3[nH]c2=O)n1 [Compound I-82] | 1000 to 10000 nM
CC(C)C[S@@+]([O-])c1ccnc(N[C@@H](C)c2cc3cc(Cl)ccc3[nH]c2=O)n1 [Compound I-106] | 1000 to 10000 nM
CC(C)CSc1ccnc(N[C@@H](C)c2cc3cc(Cl)ccc3[nH]c2=O)n1 [Compound I-107] | 1000 to 10000 nM
C[C@H](Nc1nccc(SCc2ccccc2)n1)c1cc2cc(Cl)ccc2[nH]c1=O [Compound I-110] | 1000 to 10000 nM
C[C@H](Nc1nccc(NC2CCOC2)n1)c1cc2cc(Cl)ccc2[nH]c1=O (stereo partly drawn) [Compound I-122, 6-Chloro-3-((1S)-1-((4-((tetrahydrofuran-3-yl)amino)pyrimidin-2-yl)amino)ethyl) quinolin-2(1H)-one] | 1000 to 10000 nM
C[C@H](Nc1nccc(N(C)C(=O)N(C)C)n1)c1cc2cc(Cl)ccc2[nH]c1=O [Compound I-125, (S)-1-(2-((1-(6-chloro-2-oxo-1,2-dihydroquinolin-3-yl)ethyl)amino)pyrimidin-4-yl)-1,3,3-trimethylurea] | 1000 to 10000 nM
C[C@H](Nc1nccc(NC(=O)N(C)C)n1)c1cc2cc(Cl)ccc2[nH]c1=O [Compound I-126, (S)-3-(2-((1-(6-chloro-2-oxo-1,2-dihydroquinolin-3-yl)ethyl)amino)pyrimidin-4-yl)-1,1-dimethylurea] | > 10000 nM
CC(C)CN(c1ccnc(N[C@@H](C)c2cc3cc(Cl)ccc3[nH]c2=O)n1)c1ncco1 [Compound I-128] | 100 to 1000 nM
C[C@H](Nc1nccc(CC(N)=O)n1)c1cc2cc(Cl)ccc2[nH]c1=O [Compound I-130, (S)-2-(2-((1-(6-chloro-2-oxo-1,2-dihydroquinolin-3-yl)ethyl)amino)pyrimidin-4-yl) acetamide] | 100 to 1000 nM
CNC(=O)Cc1ccnc(N[C@@H](C)c2cc3cc(Cl)ccc3[nH]c2=O)n1 [Compound I-131] | 100 to 1000 nM
C[C@H](Nc1nccc(CNS(C)(=O)=O)n1)c1cc2cc(Cl)ccc2[nH]c1=O [Compound I-132] | 1000 to 10000 nM
COC(=O)C(c1ccnc(N[C@@H](C)c2cc3cc(Cl)ccc3[nH]c2=O)n1)S(C)(=O)=O (stereo partly drawn) [Compound I-134] | 1000 to 10000 nM

Results, then the molecule that gave them:

IC50 | SMILES
< 100 nM | C[C@H](Nc1nccc(N(CC(C)(C)C)S(C)(=O)=O)n1)c1cc2cc(Cl)ccc2[nH]c1=O [Compound I-1]
100 to 1000 nM | C[C@H](Nc1nccc(CN(C2CC2)S(C)(=O)=O)n1)c1cc2cc(Cl)ccc2[nH]c1=O [Compound I-6, (S)—N-((2-((1-(6-Chloro-2-oxo-1,2-dihydroquinolin-3-yl)ethyl)amino)pyrimidin-4-yl)methyl)-N-cyclopropylmethanesulfonamide]
< 100 nM | C[C@H](Nc1nccc(N(CC(F)(F)F)S(C)(=O)=O)n1)c1cc2cc(Cl)ccc2[nH]c1=O [Compound I-13]
100 to 1000 nM | CC(C)CC(=O)N(c1ccnc(N[C@@H](C)c2cc3cc(Cl)ccc3[nH]c2=O)n1)C1CC1 [Compound I-24, (S)—N-(2-((1-(6-Chloro-2-oxo-1,2-dihydroquinolin-3-yl)ethyl)amino)pyrimidin-4-yl)-N-cyclopropyl-3-methylbutanamide]
< 100 nM | CC(=O)N(CC(C)(C)C)c1ccnc(N[C@@H](C)c2cc3cc(Cl)ccc3[nH]c2=O)n1 [Compound I-26, (S)—N-(2-((1-(6-Chloro-2-oxo-1,2-dihydroquinolin-3-yl)ethyl)amino)pyrmidin-4-yl)-N-neopentylacetamide]
100 to 1000 nM | C[C@H](Nc1nccc(NC(=O)CC2CCOCC2)n1)c1cc2cc(Cl)ccc2[nH]c1=O [Compound I-27, (S)—N-(2-((1-(6-chloro-2-oxo-1,2-dihydroquinolin-3-yl)ethyl)amino)pyrimidin-4-yl)-2-(tetrahydro-2H-pyran-4-yl)acetamide]
100 to 1000 nM | CC(C)CC(=O)Nc1ccnc(N[C@@H](C)c2cc3cc(Cl)ccc3[nH]c2=O)n1 [Compound I-31]
< 100 nM | COCC(=O)Nc1ccnc(N[C@@H](C)c2cc3cc(Cl)ccc3[nH]c2=O)n1 [Compound I-32, (S)—N-(2-((1-(6-Chloro-2-oxo-1,2-dihydroquinolin-3-yl)ethyl)amino)pyrimidin-4-yl)-2-methoxyacetamide]
100 to 1000 nM | CC(=O)N(CC(C)C)c1ccnc(NC(C)c2cc3cc(Cl)ccc3[nH]c2=O)n1 (stereo not drawn) [Compound I-34]
100 to 1000 nM | CC(Nc1nccc(N2CCOC2=O)n1)c1cc2ccccc2[nH]c1=O (stereo not drawn) [Compound I-49]
100 to 1000 nM | O=C1CCCN1c1ccnc(NCc2cc3cc(Cl)ccc3[nH]c2=O)n1 [Compound I-50]
100 to 1000 nM | C[C@H](Nc1nccc(-n2cccc2)n1)c1cc2cc(Cl)ccc2[nH]c1=O [Compound I-52]
< 100 nM | Cc1ncn(-c2ccnc(N[C@@H](C)c3cc4cc(Cl)ccc4[nH]c3=O)n2)c1C [Compound I-53, (S)-6-Chloro-3-(1-((4-(4,5-dimethyl-1H-imidazol-1-yl)pyrimidin-2-yl)amino)ethyl)quinolin-2(1H)-one]
100 to 1000 nM | Cc1cn(-c2ccnc(N[C@@H](C)c3cc4cc(Cl)ccc4[nH]c3=O)n2)cn1 [Compound I-57]
100 to 1000 nM | C[C@H](Nc1nccc(-c2ccnn2C)n1)c1cc2cc(Cl)ccc2[nH]c1=O [Compound I-67, (S)-6-Chloro-3-(1-((4-(1-methyl-1H-pyrazol-5-yl)pyrimidin-2-yl)amino)ethyl)quinolin-2(1H)-one]
100 to 1000 nM | Cc1nc(N[C@@H](C)c2cc3cc(Cl)ccc3[nH]c2=O)ncc1Br [Compound I-103]
100 to 1000 nM | C[C@H](Nc1nccc(S(C)(=O)=O)n1)c1cc2cc(Cl)ccc2[nH]c1=O [Compound I-105, (S)-6-Chloro-3-(1-((4-(methylsulfonyl)pyrimidin-2-yl)amino)ethyl)quinolin-2(1H)-one]
100 to 1000 nM | CC(C)CS(=O)(=O)c1ccnc(N[C@@H](C)c2cc3cc(Cl)ccc3[nH]c2=O)n1 [Compound I-108]
< 100 nM | CC(C)C[S@+]([O-])c1ccnc(N[C@@H](C)c2cc3cc(Cl)ccc3[nH]c2=O)n1 [Compound I-109]
100 to 1000 nM | CC(C)CC(c1ccnc(N[C@@H](C)c2cc3cc(Cl)ccc3[nH]c2=O)n1)S(C)(=O)=O (stereo partly drawn) [Compound I-118]
100 to 1000 nM | C[C@H](Nc1nccc(CN2CCCS2(=O)=O)n1)c1cc2cc(Cl)ccc2[nH]c1=O [Compound I-119, (S)-6-chloro-3-(1-((4-((1,1-dioxidoisothiazolidin-2-yl)methyl)pyrimidin-2-yl)amino)ethyl) quinolin-2(1H)-one]
100 to 1000 nM | C[C@H](Nc1nccc(C2CCCS2(=O)=O)n1)c1cc2cc(Cl)ccc2[nH]c1=O (stereo partly drawn) [Compound I-120]
100 to 1000 nM | C[C@H](Nc1nccc(Nc2ncco2)n1)c1cc2cc(Cl)ccc2[nH]c1=O [Compound I-127, (S)-6-Chloro-3-(1-((4-(oxazol-2-ylamino)pyrimidin-2-yl)amino)ethyl)quinolin-2(1H)-one]
